Data from US20230101768A1, “METHOD TO TREAT MANGANESE TOXICITY AND MANGANESE-INDUCED PA[…] HUMANS” (priority 2021, published 2023).
Like-named read-outs stand apart in the source and are kept apart here. Starred links: 1 amine or outer side, 2 acyl side, 3 side chain; linkers in the order of their positions; H or OH if unused. Positions of bridges follow the written chain, without caps; N, C: chain ends. Non-standard residues stand in square brackets, D forms with d. Residues, ends and D or L forms follow the SMILES beside them. Chains are numbered I, II in the order given. *: point of attachment. Actinocin(9to1) = Cc1c2oc3c(C)ccc(C(=O)[*:1])c3nc-2c(C(=O)[*:2])c(N)c1=O; NMeV = CN[C@H](C(=O)O)C(C)C; Cbz = O=C(OCc1ccccc1)*; Sar = CNCC(=O)O

Assays:
SLC30A10 [1] = type: cell-based; conditions: primary human hepatocytes; for SLC30A10 expression after prolyl hydroxylase inhibitor: 20 μM roxadustat or 80 μM vadadustat for 16 h
Protocol: (§1) (A) and (B): qRT-PCR assays in cells treated with or without 10 μM LW6 for 1 h followed by 0 or 250 μM manganese for 4 h (A) or with or without 20 μM roxadustat or 80 μM vadadustat for 16 h (B). […] For (B), expression in the absence of drug treatment was normalized to 1. N=3. Mean±SE. *P<0.05 by t-test (A) or one-way ANOVA and Dunnett's post hoc test for the comparison between no drug and other conditions (B).
(§2) Cell culture. HepG2 cells were grown in Eagle's modified essential medium (MEM; Corning) with 10% fetal bovine serum (Atlanta Biologicals), 100 IU/ml penicillin (Corning), and 100 μg/ml streptomycin (Corning). 293T cells were maintained in Dulbecco's modified essential medium/F12 (Thermo) supplemented with 10% fetal bovine serum, penicillin (100 IU/ml), and streptomycin (100 μg/ml). Human primary hepatocytes were purchased from XenoTech (catalog #HPCH10+) and cultured according to protocols provided by the supplier.
(§3) manganese and drug treatments in cell culture. Cells were treated with indicated levels of manganese as manganeseCl2.4H2O (Fisher). Vehicle for manganese treatment was water. Prolyl hydroxylase inhibitors roxadustat (Caymen), vadadustat, and molidustat (both APE-Bio); the HIFα inhibitor LW6 (Selleckchem); the proteasomal inhibitor MG132 (Sigma); and the transcription inhibitor actinomycin D (Sigma) were dissolved in DMSO. […] Vehicle treatment for all drugs was DMSO.
(§4) Quantitative RT-PCR assays. RNA extraction from HepG2 cells and mouse tissue, reverse transcription to cDNA, and qRT-PCR analyses were performed as described by us previously (47, 50). For analyses of mouse brain samples, a part of the midbrain, including the basal ganglia, was used. Transcript levels were quantified using the ΔΔCT method with 18S (in mice) or TBP (in HepG2 cells) as the internal control, also as described by us previously (47, 50).

VEGF [2] = type: cell-based; conditions: primary human hepatocytes; for VEGF expression after prolyl hydroxylase inhibitor: 20 μM roxadustat or 80 μM vadadustat for 16 h
Protocol: as §1, §2, §3, §4

HIF1α = type: cell-based, human; conditions: HepG2 cells, 20 μM roxadustat, 80 μM vadadustat or 20 μM molidustat for 16 h
Protocol: as §3
(§5) Immunoblots. HepG2 cells were cultured in 35 mm dishes, treated with or without manganese, MG132 and/or prolyl hydroxylase inhibitors, and scrapped using 200 μl of RIPA buffer (50 mM Tris-HCl, pH7.4; 150 mM NaCl; 1Mm EDTA; 1% Triton; 0.25% sodium deoxycholate; protease inhibitors cocktail (Thermo A32953)). Whole-cell lysates were prepared by adding loading buffer (50 mM Tris-HCl, pH 7.4; 2% sodium dodecyl sulfate; 10% glycerol, 0.1 M dithiothreitol; 0.01% (weight/volume) bromophenol blue) and boiling the samples for 5 min. Equal volumes of samples were loaded per lane. Further processing was as described by us previously (47). Images were quantified using ImageQuant TL software (GE).
(§6) Antibodies and chemicals. The inventors used the following commercial primary antibodies in this study: rabbit polyclonal anti-HIF1α (Abcam, Ab2185), rabbit polyclonal anti-HIF2α (Novus, NB100-122), rabbit monoclonal anti-HIF1α proline 564 (Cell signaling, 3434S), and mouse monoclonal anti-tubulin (Sigma, T5168). […] Sources of chemicals not provided elsewhere were Thermo Fisher Scientific or Sigma-Aldrich.

HIF2α = type: cell-based, human; conditions: HepG2 cells, 20 μM roxadustat, 80 μM vadadustat or 20 μM molidustat for 16 h
Protocol: as §3, §5, §6

HepG2 cells [3] = assay: MTT cell viability assay, manganese-induced cell death; type: cell-based, human; conditions: 20 μM roxadustat, 80 μM vadadustat or 20 μM molidustat for 16 h then manganese for 24 h
Protocol: manganese and drug treatments in cell culture. […] Vehicle for manganese treatment was water. […] Vehicle treatment for all drugs was DMSO.
Cell viability assays. These were performed using the 3-(4,5-dimethylthiazol-2-yl)-2,5-diphenyl tetrazolium bromide (MTT) reagent (Sigma) as described by us previously (47, 50).

HepG2 cells [4] = type: cell-based, human
Protocol: as §2, §3
(§7) Inductively coupled plasma mass spectrometry. Metal measurements using ICP-MS were performed exactly as described by us previously (47, 50, 51, 99).

SLC30A10 [5] = type: cell-based, human; conditions: for SLC30A10 expression after prolyl hydroxylase inhibitor: indicated doses for 16 h or indicated times, no drug normalized to 1
Protocol: (§8) Cells were treated with 0 or 250 μM manganese for 4 h, and gene expression was analyzed by qRT-PCR. For each transcript, expression without manganese treatment was normalized to 1. N=4. Data are mean±SE.
as §2, §3, §4

SLC30A10 promoter = type: cell-based, human
Text: A luciferase reporter plasmid containing the proximal promoter of human SLC30A10 has been previously described and was a gift of Dr. Ruth Valentine (100). The promoter fragment corresponding to bases −679 to +211 relative to the start of transcription was sub-cloned into the Xho1 and SpeI sites of pRRLSIN.cPPTLuciferase.WPRE vector (Addgene, #69251), which is a luciferase vector for lentivirus infections. Deletion mutants were generated using the loop-out modification of the QuikChange protocol.
Lentiviral infections. Stable cells were generated by lentivirus infection essentially as described by us previously (49, 98). Briefly, lentivirus was produced in HEK293T cells by co-transfecting transfer plasmids described above with plasmids coding for a third generation packing system that is routinely used (pRSV-Rev, pRRE, and pCMV-VSVG) (49, 98). Viral supernatants were collected 40-48 h post-transfection. HepG2 cells for infection were plated in a 60 mm dish 24 h before infection so that cells reached a confluence of 30% on the day of infection. Collected viral supernatants were filtered through a 0.45-μm polyvinylidene difluoride filter, and cells were incubated with a 1:2 dilution of viral supernatant containing 5 μg/mL Polybrene (Santa Cruz). […]

VEGF [6] = type: cell-based, human; conditions: HepG2 cells, 10 μM LW6 for 1 h then 250 μM manganese for 4 h
Protocol: as §8, §2, §3, §4

SLC30A10 [7] = type: in vivo, mice; conditions: C57BL/6J mice, roxadustat 10 mg/kg daily i.p. for 4 weeks
Protocol: A well-characterized drinking water-based manganese exposure regimen was used to model human environmental manganese exposure by providing mice with ˜50 mg manganeseCl2.4H2O/kg body weight daily (˜15 mg absolute manganese/kg per day) from birth until 8 weeks of age. This, and related similar, dosing regimens: 1) approximate the increase in manganese exposure in humans consuming well water contaminated with 1.5 mg manganese/L, which is the median well water concentration associated with neurological deficits in children; 2) increase brain manganese levels by ˜2-3 fold, similar to human patients; 3) produce measurable neurobehavioral deficits without overt toxicity; and 4) model exposure to manganese in developmentally-sensitive early-life and adolescent periods (11). Pre-weaning manganese was delivered by pipette directly into the mouth, and post-weaning manganese was delivered in drinking water using procedures described in detail in ref. (11). In brief, pre-weaning dosing was adjusted to each animal's body weight. For this, a stock solution of 69.2 mg absolute manganese/ml prepared in milliQ water was diluted in milliQ water containing 2.5% (wt/vol) of the natural sweetener Stevia (to facilitate intake by pups), and the required manganese amount (0.2 μl manganese stock/g body weight) was delivered in a dose of ˜5-10 μl/animal. For post-weaning exposure, a 27.7 mg absolute manganese/ml stock solution was prepared in water and diluted to 0.069 mg absolute manganese/ml in drinking water, which provided mice with ˜15 mg absolute manganese/kg per day based on a daily water intake of ˜2-5 ml/mouse depending on age.
(§9) To assay for the protective effect of roxadustat, animals were exposed to roxadustat or vehicle with or without manganese in drinking water from ˜4 weeks of age. Treatment lasted for 4 weeks from initiation. Roxadustat (Selleckchem) was prepared as a 50 mg/ml stock solution in DMSO, then diluted to 1 mg/ml in sterile phosphate buffered saline (PBS), and delivered by daily i.p. injection at 10 mg/kg. Vehicle was 2% DMSO in PBS. For this experiment, drinking water manganese levels were adjusted to 0.138 mg absolute manganese/ml so that animals received ˜30 mg absolute manganese/kg daily. A higher level of manganese was used because exposure was initiated after weaning, which was necessary because daily i.p. injections for roxadustat delivery were not possible in the pre-weaning period.
(§10) Animals were euthanized using carbon dioxide and tissue dissected for qRT-PCR or ICPMS analyses as described by us previously (50).
as §4

C57BL/6J mice [8] = tested on: C57BL/6J mice
Protocol: as §9
Open-field assays for neurobehavior assessment. Open-field analyses were performed as described in a recent publication (51).

C57BL/6J mice [9] = conditions: roxadustat 10 mg/kg daily i.p. with or without manganese in drinking water, 4 weeks, two-way ANOVA
Protocol: as §9, §10, §7

[10] = tested on: prolyl hydroxylated HIF1α; type: cell-based, human
Protocol: as §3, §5, §6

[11] = 10 μM LW6 for 1 h then 250 μM manganese for 4 h

Compound	SLC30A10 expression after prolyl hydroxylase inhibitor (SLC30A10 [1])	VEGF expression after prolyl hydroxylase inhibitor (VEGF [2])	HIF1α protein levels after prolyl hydroxylase inhibitor (HIF1α)	HIF2α protein levels after prolyl hydroxylase inhibitor (HIF2α)	Protection against manganese-induced cell death (HepG2 cells [3])	Intracellular Fe, Cu, and Zn levels (HepG2 cells [4])	Intracellular manganese in cells not exposed to manganese (HepG2 cells [4])	Intracellular manganese levels under elevated manganese exposure, versus controls (HepG2 cells [4])	SLC30A10 expression after prolyl hydroxylase inhibitor (SLC30A10 [5]; HepG2 cells)	further results
O=C(O)CNC(=O)c1ncc(-c2cccc(Cl)c2)cc1O [vadadustat, 2-[[5-(3-chlorophenyl)-3-hydroxypyridine-2-carbonyl]amino]acetic acid]	increased	increased	increased	increased	protected	no effect	did not impact	significantly lower	enhanced	
Cc1c2oc3c(C)ccc(C(=O)N[C@@H]4C(=O)N[C@H](C(C)C)C(=O)N5CCC[C@H]5C(=O)N(C)CC(=O)N(C)[C@@H](C(C)C)C(=O)O[C@@H]4C)c3nc-2c(C(=O)N[C@@H]2C(=O)N[C@H](C(C)C)C(=O)N3CCC[C@H]3C(=O)N(C)CC(=O)N(C)[C@@H](C(C)C)C(=O)O[C@@H]2C)c(N)c1=O [actinomycin D, reference compound] (I: T[dV]P[Sar][NMeV] / II: T[dV]P[Sar][NMeV]; ester I:1-I:C, II:1-II:C; linker I:N-II:N via Actinocin(9to1))										Effect of actinomycin D on increase in SLC30A10 mRNA after manganese exposure (SLC30A10 [5]): blocked
COC(=O)c1ccc(O)c(NC(=O)COc2ccc(C34CC5CC(CC(C5)C3)C4)cc2)c1 [LW6, reference compound]										Effect of LW6 on manganese-induced increase in activity of SLC30A10 promoter luciferase reporter (SLC30A10 promoter): abolished; Effect of LW6 on manganese-induced increase of SLC30A10 expression (SLC30A10 [1]; [11]): inhibited; Effect of LW6 on manganese-induced increase of VEGF expression (VEGF [2]; [11]): inhibited; Effect of LW6 on manganese-induced upregulation of SLC30A10 (SLC30A10 [5]; HepG2 cells, 10 μM LW6 for 1 h then 250 μM manganese for 4 h): robustly blocked; Effect of LW6 on manganese-induced upregulation of VEGF (VEGF [6]): robustly blocked
Cc1nc(C(=O)NCC(=O)O)c(O)c2ccc(Oc3ccccc3)cc12 [roxadustat, 2-[(4-hydroxy-1-methyl-7-phenoxyisoquinoline-3-carbonyl)amino]acetic acid]	increased	increased	increased	increased	protected	no effect	did not impact	significantly lower	enhanced	Brain SLC30A10 levels (SLC30A10 [7]): did not impact; Intestinal SLC30A10 levels (SLC30A10 [7]): increased; Open-field activity, roxadustat treatment by itself (C57BL/6J mice [8]; C57BL/6J mice, roxadustat 10 mg/kg daily i.p. for 4 weeks, no manganese): did not impact; Hypo-locomotor phenotype (reduced vertical movement) in mice treated with manganese and roxadustat (C57BL/6J mice [8]; mouse, in vivo): not detected; Brain manganese levels, main effect of roxadustat (C57BL/6J mice [9]): reducing
CC(C)C[C@@H](C=O)NC(=O)[C@H](CC(C)C)NC(=O)[C@H](CC(C)C)NC(=O)OCc1ccccc1 [MG132, reference compound] (Cbz-Leu-Leu-Leu-aldehyde)										Prolyl hydroxylated HIF1α after proteasome inhibition [10]: accumulation
